Measurements: ChEMBL document CHEMBL5725801, “Fused heterocyclic compounds as CaM kinase inhibitors” (2018)

Assay: CaMKII Cell-Based Activity: CaMKII activity in neonatal rat ventricular myocytes (NRVM) was measured by monitoring the phosphorylation level of phospholamban using high-content imaging. NRVMs were plated in a clear bottom 384-well plate in medium supplemented with 10% fetal bovine serum (FBS) and incubated at 37° C., 5% CO2 overnight. The medium was changed to a serum-free medium and compounds were dosed to the cells. The cells were incubated at 37° C., 5% CO2 for 4 hours and were then treated with 100 nM ATX-II (Alomone Labs) to activate CaMKII. 10 minutes after the addition of ATX-II, the cells were fixed with 4% formaldehyde followed by permeabilization with 0.1% triton X100. The fixed cells were stained with an anti-phospho-phospholamban primary antibody (Santa Cruz Biotechnology) and an Alexa488-labeled anti-rabbit IgG secondary antibody (Life Technologies Corporation) as well as Hoechst 33342 (Life Technologies Corporation). The cells were imaged using an ArrayScan VTI (Cellomics) and analyzed for cells containing a positive fluorescent signal at 485 nm, reported as % responder. The % responders were plotted against the compound concentration to determine the compounds EC50.

EC50 [nM]	Structure (SMILES)
7290	CCN(CC)[C@@H](C)CNC(=O)c1cc(NC2COC2)nc(-c2cnn3ccc(-c4cccs4)nc23)c1
8.28	CCN(CC)[C@@H](C)CNC(=O)c1cc(-c2cnn3ccc(-c4cccs4)nc23)nc(N2CC(C)(OC)C2)c1
40.4	CCN(CC)c1cc(C(=O)NC[C@H](C)N(CC)CC)cc(-c2cnn3ccc(-c4cccs4)nc23)n1
24.7	CCN(CC)[C@@H](C)CNC(=O)c1cc(-c2cnn3ccc(-c4cccs4)nc23)nc(N2CC(O)(CC)C2)c1
22.6	CCN(CC)[C@@H](C)CNC(=O)c1cc(-c2cnn3ccc(-c4cccs4)nc23)nc(N2CC(NC(=O)N(C)C)C2)c1
166	CCN(CC)[C@@H](C)CNC(=O)c1cc(-c2cnn3ccc(-c4cccs4)nc23)nc(N2CCC[C@@H]2C(N)=O)c1
24.2	CCN(CC)[C@@H](C)CNC(=O)c1cc(NC2CCOCC2)nc(-c2cnn3ccc(-c4cccs4)nc23)c1
607	CCN(CC)[C@@H](C)CNC(=O)c1cc(-c2cnn3ccc(-c4ccncc4)nc23)nc(N2CC(OC)C2)c1
26.4	CCN(CC)[C@@H](C)CNC(=O)c1cc(-c2cnn3ccc(-c4cccs4)nc23)nc(N2CC(NS(C)(=O)=O)C2)c1
260	CCN(CC)[C@@H](C)CNC(=O)c1cc(-c2cnn3ccc(-c4cccs4)nc23)nc(N2CCC[C@@H]2COC)c1
33.4	CCN(CC)[C@@H](C)CNC(=O)c1cc(-c2cnn3ccc(-c4cccs4)nc23)nc(N2CC[C@H]2C(=O)NCC2CC2)c1
45.9	CCN(CC)[C@@H](C)CNC(=O)c1cc(-c2cnn3ccc(-c4cccs4)nc23)nc(N2CCC[C@@H]2CO)c1
18.2	CCN(CC)[C@@H](C)CNC(=O)c1cc(-c2cnn3ccc(-c4cccs4)nc23)nc(N2CCC3(COC3)C2)c1
61.5	CCN(CC)[C@@H](C)CNC(=O)c1cc(-c2cnn3ccc(-c4cccs4)nc23)nc(N2CC(F)(F)C(F)(F)C2)c1
43.6	CCN(CC)[C@@H](C)CNC(=O)c1cc(-c2cnn3ccc(-c4cccs4)nc23)nc(N2CCN(C(C)=O)CC2)c1
23.4	CCN(CC)[C@@H](C)CNC(=O)c1cc(NCC2(C)COC2)nc(-c2cnn3ccc(-c4cccs4)nc23)c1
21.6	CCN(CC)[C@@H](C)CNC(=O)c1cc(-c2cnn3ccc(-c4cccs4)nc23)nc(N2CC(CO)C2)c1
108	CCN(CC)[C@@H](C)CNC(=O)c1cc(NCC(=O)NC)nc(-c2cnn3ccc(-c4cccs4)nc23)c1
250	CCN(CC)[C@@H](C)CNC(=O)c1cc(-c2cnn3ccc(-c4cccs4)nc23)nc(N2C[C@H](O)[C@@H](O)C2)c1
147	CCN(CC)[C@@H](C)CNC(=O)c1cc(N[C@H](C)C(=O)NC)nc(-c2cnn3ccc(-c4cccs4)nc23)c1
10.7	CCN(CC)[C@@H](C)CNC(=O)c1cc(-c2cnn3ccc(-c4cccs4)nc23)nc(N2CC[C@H]2C(=O)N(C)C)c1
3.75	CCN(CC)[C@@H](C)CNC(=O)c1cc(-c2cnn3ccc(-c4cccs4)nc23)nc(N2CC(NC(=O)C3CC3)C2)c1
181	CCN1CCC[C@H]1CNC(=O)c1cc(-c2cnn3ccc(-c4cccs4)nc23)nc(N2CC(OC)C2)c1
247	CCN(CC)[C@@H](C)CNC(=O)c1cc(Nc2ncc[nH]2)nc(-c2cnn3ccc(-c4cccs4)nc23)c1
53.7	CCN(CC)CCNC(=O)c1cc(-c2cnn3ccc(-c4cccs4)nc23)nc(N2CC(C)(O)C2)c1

EC50 [nM]	Structure (SMILES)
326	COC1CN(c2cc(C(=O)NC[C@@H]3CCCN3C)cc(-c3cnn4ccc(-c5cccs5)nc34)n2)C1
54.5	CCN(CC)[C@@H](C)CNC(=O)c1cc(-c2cnn3ccc(-c4cccs4)nc23)nc(N2CCC23COC3)c1
136	CCN(CC)CCNC(=O)c1cc(NCCO)nc(-c2cnn3ccc(-c4cccs4)nc23)c1
28.1	CCN(CC)[C@@H](C)CNC(=O)c1cc(-c2cnn3ccc(-c4cccs4)nc23)nc(N2CCC(F)(F)C2)c1
29.9	CCN(CC)[C@@H](C)CNC(=O)c1cc(N[C@H]2CCOC2)nc(-c2cnn3ccc(-c4cccs4)nc23)c1
112	CCN(CC)[C@@H](C)CNC(=O)c1cc(-c2cnn3ccc(-c4cccs4)nc23)nc(N2CCC[C@H]2CO)c1
45.6	CCN(CC)[C@@H](C)CNC(=O)c1cc(NCCN2CC(F)(F)C2)nc(-c2cnn3ccc(-c4cccs4)nc23)c1
43.5	CCN(CC)[C@@H](C)CNC(=O)c1cc(-c2cnn3ccc(-c4cccs4)nc23)nc(N2CCO[C@H](CO)C2)c1
49.4	CCN(CC)[C@@H](C)CNC(=O)c1cc(NCCCO)nc(-c2cnn3ccc(-c4cccs4)nc23)c1
261	COC1CN(c2cc(C(=O)NC[C@@H]3CCCN3)cc(-c3cnn4ccc(-c5cccs5)nc34)n2)C1
115	CCN(CC)[C@@H](C)CNC(=O)c1cc(-c2cnn3ccc(-c4cccs4)nc23)nc(N2CCC(C(N)=O)CC2)c1
27.5	CCN(CC)[C@@H](C)CNC(=O)c1cc(NCCN2CCOCC2)nc(-c2cnn3ccc(-c4cccs4)nc23)c1
148	CCN(CC)[C@@H](C)CNC(=O)c1cc(NCc2ncc[nH]2)nc(-c2cnn3ccc(-c4cccs4)nc23)c1
110	CCN(CC)[C@@H](C)CNC(=O)c1cc(-c2cnn3ccc(-c4cccs4)nc23)nc(N2CCC(OC)CC2)c1
306	CCN(CC)[C@@H](C)CNC(=O)c1cc(NCC(N)=O)nc(-c2cnn3ccc(-c4cccs4)nc23)c1
54.3	CCN(CC)[C@@H](C)CNC(=O)c1cc(NCc2cc[nH]n2)nc(-c2cnn3ccc(-c4cccs4)nc23)c1
75.2	CCN(CC)[C@@H](C)CNC(=O)c1cc(N[C@H](C)CO)nc(-c2cnn3ccc(-c4cccs4)nc23)c1
69.9	CCN(CC)[C@@H](C)CNC(=O)c1cc(-c2cnn3ccc(-c4cccs4)nc23)nc(N2CC(NC)C2)c1
368	CCN[C@@H](C)CNC(=O)c1cc(-c2cnn3ccc(-c4cccs4)nc23)nc(N2CC(C)(O)C2)c1
34	CCN(CC)[C@@H](C)CNC(=O)c1cc(N[C@@H](C)CO)nc(-c2cnn3ccc(-c4cccs4)nc23)c1
71.4	CCN(CC)[C@@H](C)CNC(=O)c1cc(-c2cnn3ccc(-c4cccs4)nc23)nc(N2CC(C(N)=O)C2)c1
107	CCN(CC)[C@@H](C)CNC(=O)c1cc(-c2cnn3ccc(-c4cccs4)nc23)nc(N2CC(CO)(CO)C2)c1
30.6	CCN(CC)[C@@H](C)CNC(=O)c1cc(NC2CC2)nc(-c2cnn3ccc(-c4cccs4)nc23)c1
13600	CCN(CC)[C@@H](C)CNC(=O)c1cc(NCC2COC2)nc(-c2cnn3ccc(-c4cccs4)nc23)c1
259	CCN(CC)[C@@H](C)CNC(=O)c1cc(-c2cnn3ccc(-c4cccs4)nc23)nc(N2CCC[C@H]2C(N)=O)c1

EC50 [nM]	Structure (SMILES)
22.3	CCN(CC)[C@@H](C)CNC(=O)c1cc(NCCC(C)(C)O)nc(-c2cnn3ccc(-c4cccs4)nc23)c1
232	CCN(CC)[C@@H](C)CNC(=O)c1cc(NCCS(N)(=O)=O)nc(-c2cnn3ccc(-c4cccs4)nc23)c1
25.2	CCN(CC)C(=O)[C@@H]1CCN1c1cc(C(=O)NC[C@H](C)N(CC)CC)cc(-c2cnn3ccc(-c4cccs4)nc23)n1
78.4	CCN(CC)[C@@H](C)CNC(=O)c1cc(-c2cnn3ccc(-c4cccs4)nc23)nc(N2CC[C@H]2COC)c1
514	CCN(CC)[C@@H](C)CNC(=O)c1cc(-c2cnn3ccc(-c4cccs4)nc23)nc(N2C[C@@H]3C[C@H]2CO3)c1
67	CCN(CC)[C@@H](C)CNC(=O)c1cc(-c2cnn3ccc(-c4cccs4)nc23)nc(N2CCNCC2)c1
90.9	CCN(CC)CCNC(=O)c1cc(-c2cnn3ccc(-c4cccs4)nc23)nc(N2CC(OC)C2)c1
355	CCN(CC)[C@@H](C)CNC(=O)c1cc(N[C@H](C)C(N)=O)nc(-c2cnn3ccc(-c4cccs4)nc23)c1
56.7	CCN(CC)[C@@H](C)CNC(=O)c1cc(-c2cnn3ccc(-c4cccs4)nc23)nc(N2CC(O)(C3CC3)C2)c1
31.9	CCN(CC)[C@@H](C)CNC(=O)c1cc(NCCCOC)nc(-c2cnn3ccc(-c4cccs4)nc23)c1
9.87	CCN(CC)[C@@H](C)CNC(=O)c1cc(Nc2cn[nH]c2)nc(-c2cnn3ccc(-c4cccs4)nc23)c1
26.5	CCN(CC)[C@@H](C)CNC(=O)c1cc(-c2cnn3ccc(-c4cccs4)nc23)nc(N2CC(O)(C(F)(F)F)C2)c1
28.5	CCNC(=O)[C@@H]1CCN1c1cc(C(=O)NC[C@H](C)N(CC)CC)cc(-c2cnn3ccc(-c4cccs4)nc23)n1
32.7	CCN(CC)[C@@H](C)CNC(=O)c1cc(NC[C@@H](C)O)nc(-c2cnn3ccc(-c4cccs4)nc23)c1
57.2	CCN(CC)[C@@H](C)CNC(=O)c1cc(-c2cnn3ccc(-c4cccs4)nc23)nc(N2CC(C(C)(C)O)C2)c1
21.4	CCN(CC)[C@@H](C)CNC(=O)c1cc(-c2cnn3ccc(-c4cccs4)nc23)nc(N2CC(C)(O)C2)c1
97.8	CCNc1cc(C(=O)NC[C@H](C)N(CC)CC)cc(-c2cnn3ccc(-c4cccs4)nc23)n1
168	CCN(CC)[C@@H](C)CNC(=O)c1cc(-c2cnn3ccc(-c4cccs4)nc23)nc(N2CC(N(C)C)C2)c1
28	CCN(CC)[C@@H](C)CNC(=O)c1cc(-c2cnn3ccc(-c4cccs4)nc23)nc(N2CC[C@H]2C(=O)NC2CC2)c1
27.1	CCN(CC)[C@@H](C)CNC(=O)c1cc(NC[C@H](C)O)nc(-c2cnn3ccc(-c4cccs4)nc23)c1
28.4	CCN(CC)[C@@H](C)CNC(=O)c1cc(-c2cnn3ccc(-c4cccs4)nc23)nc(N2CC(NC(C)=O)C2)c1
148	CCN(CC)[C@@H](C)CNC(=O)c1cc(N[C@@H](C)C(N)=O)nc(-c2cnn3ccc(-c4cccs4)nc23)c1
80.1	CCN(CC)[C@@H](C)CNC(=O)c1cc(-c2cnn3ccc(-c4cccs4)nc23)nc(N2CC[C@@H]2COC)c1
53	CCN(CC)[C@@H](C)CNC(=O)c1cc(-c2cnn3ccc(-c4cccs4)nc23)nc(N2CC[C@H]2C(=O)NCCF)c1
129	CCN(CC)[C@@H](C)CNC(=O)c1cc(N[C@@H](C)C(=O)NC)nc(-c2cnn3ccc(-c4cccs4)nc23)c1
